Reference: patent US20250188110A1, “SPECIFIC SMALL MOLECULE INHIBITORS THAT BLOCK KMT9 METHYLTRANSFERASE ACTIVITY AND FUNCTION” (ALBERT-LUDWIGS-UNIVERSITÄT FREIBURG, priority 2021, published 2025)
Read-outs that look alike come from different tables or passages of the source.

Key:
KMT9 [1] = molecular target: T1, KMT9 (Homo sapiens, UniProt Q9Y5N5); assay: KMT9 thermal shift assay (SyproOrange); assay type: binding; conditions: 500 µM compound
T1 sequence (Q9Y5N5 1-214): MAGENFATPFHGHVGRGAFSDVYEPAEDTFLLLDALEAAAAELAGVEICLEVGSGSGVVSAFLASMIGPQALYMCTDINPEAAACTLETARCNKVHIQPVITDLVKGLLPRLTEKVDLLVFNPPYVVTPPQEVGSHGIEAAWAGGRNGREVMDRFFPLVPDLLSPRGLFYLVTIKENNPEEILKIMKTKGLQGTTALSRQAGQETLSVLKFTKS
T1 sequence (Q9UI30 1-120 isoform Q9UI30-2 partner): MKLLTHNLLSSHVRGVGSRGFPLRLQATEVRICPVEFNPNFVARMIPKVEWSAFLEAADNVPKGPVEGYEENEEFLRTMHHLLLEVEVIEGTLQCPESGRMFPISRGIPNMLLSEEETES
Experimental: The assay was carried out in 96-well Hard-Shell PCR plates (Bio-Rad Laboratories Inc.). Assay buffer consisted of 50 mM BTP, 1 mM MgCl2 and 1 mM DTT at a pH of 8.5 (adjusted using 1 M HCl and 1 M NaOH). 20X inhibitor stock (in DMSO), 2X enzyme stock and 4X SyproOrange (SO) stock (both in assay buffer) were prepared. 1 μL of 20X compound, 4 μL of assay buffer, 10 μL of 2X KMT9 and 5 μL of 4X SO were pipetted. For the no-compound control, 20X inhibitor stock was replaced by DMSO. The final volume was 20 μL. The plate was spun down at 700 rpm for 1 min using a Hettich UNIVERSAL 320 centrifuge and incubated at 25° C., shaking at 600 rpm. After incubation, the plate was spun down for 1 min at 700 rpm and measurement was conducted using a CFX96 Touch Real-Time PCR Detection System (Bio-Rad Laboratories Inc.). The plate was equilibrated at 20° C. for 4 min and then heated stepwise at a rate of 1° C. per 15 s until 95° C. After every step, fluorescence was measured in FRET mode. Calculation of melting points was conducted by a Boltzman sigmoidal model using GraphPad Prism 7.0.
For the results of the thermal shift assay shown as “Thermal shift” in Table 1, “++++” represents a ΔTm of greater 20 K, “+++” represents a ΔTm of greater than 15 K and less than or equal to 20 K (15 K<ΔTm≤20 K); “++” represents a ΔTm of greater than 10 K and less than or equal to 15 K (10 K<ΔTm ≤ 15 K); “+” represents a ΔTm of equal to or less than 10 K (ΔTm≤10 K).

KMT9 [2] = molecular target: T1, KMT9; assay: Microscale thermophoresis (MST) KMT9 binding
Experimental: To determine the binding affinity of the compounds according to the present invention and KMT9, microscale thermophoresis (MST) analysis was performed with a NanoTemper Monolith NT.115 instrument (NanoTemper Technologies GmbH). KMT9 was labelled with a RED-Tris-NTA labelling kit (NanoTemper Technologies GmbH) based on the manufacturer's instructions. Buffer including 25 mM HEPES (pH 7.5), 100 mM NaCl, 1 mM DTT and 0.05% Tween was used for the reaction buffer. Varying concentrations of the tested compounds of formula (I) as indicated in Table 1 were titrated against His-tag labelled KMT9 proteins (20 nM). Samples were loaded into standard Capillaries (NanoTemper Technologies GmbH) and MST measurements were performed using 40% MST power and 100% LED power. For each set of binding experiments, MST measurement was carried out with Binding Affinity module in MO.Control program under Nano-RED Excitation. Datasets were processed with the MO.Affinity Analysis software (NanoTemper Technologies GmbH).
For the results of the microscale thermophoresis (MST) assay shown as “MST” in Table 1, “A” represents a Kd of equal to or less than 10 nM (Kd≤10 nM); “B” represents a Kd of greater than 10 nM and equal to or less than 100 nM (10 nM<Kd<100 nM); “C” represents a Kd of greater than 100 nM and equal to or less than 1000 nM (100 nM<Kd ≤ 1000 nM); “D” represents a Kd of greater than 1000 nM (1000 nM<Kd).

KMT9 [3] = molecular target: T1, KMT9; assay: KMT9 methyltransferase inhibition assay, 3H-SAM scintillation (entries 1-154); assay type: biochemical; conditions: entries 1-154: 3H-SAM assay, 25 nM KMT9, 5 μM ETF1
Experimental: The assay was carried out in 0.5 mL Eppendorf tubes in duplicates. Assay buffer consisted of 50 mM BTP, 1 mM MgCl2, 1 mM DTT and 0.01% Triton-X^100 at a pH of 8.5 (adjusted using 1 M HCl and 1 M NaOH). 20X inhibitor stock (in DMSO), 2X enzyme stock and 4X substrate mix (both in assay buffer) were prepared. The substrate mix consisted of Tritium-labelled S-adenosylmethionine (3H-SAM), S-adenosylmethionine (SAM) and eukaryotic peptide chain release factor subunit1 (Homo sapiens, residues 140-275)(ETF1). Final assay concentrations were set to 25 nM KMT9, 0.3 μM 3H-SAM, 0.7 µM SAM and 5 μM ETF1. […] 5 μL of 4x substrate mix was added to initiate the reaction. The final reaction volume was 20 μL. For the positive control, the compound of formula (I) was replaced by DMSO; for the negative control, the compound of formula (I) was replaced by DMSO and KMT9 was replaced by assay buffer. The reaction mix was incubated in an Eppendorf thermomixer comfort at 30° C. for 2 h, shaking at 300 rpm. The reaction was quenched using 5 μL 50% trichloroacetic acid (TCA) and incubated at 25° C. for 5 minutes. 22 μL of the mixture was transferred into 96-well MultiScreen@HTS FB filter plates (Merck KGaA, Darmstadt, Germany) and washed four times with 10% TCA and two times with 100% ethanol. The plate was dried overnight, the filters were transferred into individual 6 mL Pony Vials (Perkin Elmer Inc, Waltham, MA, USA) and incubated in 3 mL of Ultima Gold scintillation cocktail (Perkin Elmer Inc, Waltham, MA, USA) for 30 minutes. The scintillation signal was measured for 3x 1 min using TriCarb 2910 TR (Perkin Elmer) scintillation counter in 3H CPM mode (LL: 0, UL: 18.6). Inhibition was calculated using the following formula: […]
With xc: signal of compound, Xpos: mean signal of positive control, Xneg: mean signal of negative control. Data fitting was carried out by GraphPad 7.0 using nonlinear fit ([Inhibitor]vs. response-variable slope (four parameters)).
For the results of the methyltransferase inhibition assay shown as “Inhibition” in Table 1, “I” represents an IC50 less than 0.1 μM, “II” represents an IC50 equal or higher than 0.1 μM and less than 1 μM, “III” represents an IC50 equal or higher than 1 µM and less than 10 µM and “IV” represents an IC50 equal or higher than 10 µM

[4] = ΔTm, 2 μM KMT9, 5X SO, read-out: Thermal shift
[5] = microscale thermophoresis, His-tag labelled KMT9 (20 nM), read-out: MST
[6] = 2 μM KMT9, read-out: Thermal shift (ΔTm)

ΔTm at 500 µM (KMT9 [1]; [4])	Kd (KMT9 [2]; [5])	IC50 (KMT9 [3])	ΔTm at 500 µM (KMT9 [1]; [6])	Kd (KMT9 [2]; His-tag labelled KMT9 20 nM, read-out: MST (Kd))	SMILES
≤ 10 °C	> 1000 nM	–	–	–	CNc1ncnc2c1ccn2[C@@H]1C[C@H]([C@@H]2C[C@@H]2CCCNCCc2ccccc2)[C@@H](O)[C@H]1O [Compound 683, (1R,2S,3R,5R)-3-(4-(methylamino)-7H-pyrrolo[2,3-d]pyrimidin-7-yl)-5-((1R,2S)-2-(3-(phenethylamino)propyl)cyclopropyl)cyclopentane-1,2-diol]
≤ 10 °C	> 1000 nM	> 10000 nM	–	–	CC1CCNc2ncnc3c2c1cn3[C@@H]1C[C@H](CN)[C@@H](O)[C@H]1O (stereo partly drawn) [Compound 629, (1S,2R,3R,5R)-3-(Aminomethyl)-5-(9-methyl-6,7,8,9-tetrahydro-2H-2,3,5,6-tetraazabenzo[cd]azulen-2-yl)cyclopentane-1,2-diol]
≤ 10 °C	> 1000 nM	> 10000 nM	–	–	Nc1ncnc2c1c(-c1nccs1)cn2[C@@H]1C[C@H](CC2CNC2)[C@@H](O)[C@H]1O [Compound 486, (1R,2S,3R,5S)-3-(4-amino-5-(thiazol-2-yl)-7H-pyrrolo[2,3-d]pyrimidin-7-yl)-5-(azetidin-3-ylmethyl) cyclopentane-1,2-diol]
≤ 10 °C	> 1000 nM	> 10000 nM	–	–	CNc1ncnc2c1ccn2[C@@H]1C[C@H](COCCNCCc2ccccc2)[C@@H](O)[C@H]1O [419 (290), (1R,2S,3R,5R)-3-[4-(Methylamino)pyrrolo[2,3-d]pyrimidin-7-yl]-5-({2-[(2-phenylethyl)amino]ethoxy}methyl) cyclopentane-1,2-diol]
≤ 10 °C	> 1000 nM	> 10000 nM	–	–	Nc1ncnc2c1ncn2[C@@H]1O[C@H](C(=O)NC2CCN(CCc3ccccc3)CC2)[C@@H](O)[C@H]1O [325 (228), (2S,3S,4R,5R)-5-(6-amino-9H-purin-9-yl)-3,4-dihydroxy-N-(1-phenethylpiperidin-4-yl) tetrahydrofuran-2-carboxamide]
15 to 20 °C	10 to 100 nM	1000 to 10000 nM	–	–	Nc1ncnc2c1c(-c1ccn(Cc3ccccc3)n1)cn2[C@@H]1C[C@H](CNCCCNCCc2ccccc2)[C@@H](O)[C@H]1O [477 (351), (1R,2S,3R,5R)-3-(4-Amino-5-(1-benzyl-1H-pyrazol-3-yl)-7H-pyrrolo[2,3-d]pyrimidin-7-yl)-5-(((3-(phenethylamino)propyl)amino)methyl) cyclopentane-1,2-diol]
15 to 20 °C	10 to 100 nM	1000 to 10000 nM	–	–	C=Cc1cn([C@@H]2C[C@H](CNCCCNCCc3cccc(Oc4ccccc4)c3)[C@@H](O)[C@H]2O)c2ncnc(N)c12 [462 (336), (1R,2S,3R,5R)-3-{4-Amino-5-ethenylpyrrolo[2,3-d]pyrimidin-7-yl}-5-{[(3-{[2-(3-phenoxyphenyl)ethyl]amino}propyl)amino]methyl}cyclopentane-1,2-diol]
15 to 20 °C	10 to 100 nM	100 to 1000 nM	–	–	Nc1ncnc2c1c(Br)cn2[C@@H]1C[C@H](CNCCCNCCc2ccc(F)cc2F)[C@@H](O)[C@H]1O [334 (238), (1R,2S,3R,5R)-3-(4-amino-5-bromo-7H-pyrrolo[2,3-d]pyrimidin-7-yl)-5-(((3-((2,4-difluorophenethyl)amino)propyl)amino)methyl) cyclopentane-1,2-diol]
–	–	–	≤ 10 °C	–	O[C@@H]1[C@H](O)[C@@H]([C@H]2CCCNC2)C[C@H]1n1cc(-c2nccs2)c2cncnc21 [Compound 402, (1S,2R,3R,5R)-3-((R)-piperidin-3-yl)-5-(5-(thiazol-2-yl)-7H-pyrrolo[2,3-a]pyrimidin-7-yl) cyclopentane-1,2-diol]
–	10 to 100 nM	100 to 1000 nM	–	–	Nc1ncnc2c1c(-c1ccccc1)cn2[C@@H]1C[C@H](CNCCCNCCc2ccc(F)cc2)[C@@H](O)[C@H]1O [340 (244), (1R,2S,3R,5R)-3-(4-amino-5-phenyl-7H-pyrrolo[2,3-d]pyrimidin-7-yl)-5-(((3-((4-fluorophenethyl)amino)propyl)amino)methyl) cyclopentane-1,2-diol]
–	–	–	≤ 10 °C	–	O[C@@H]1[C@H](O)[C@@H]([C@H]2CCCNC2)C[C@H]1n1ccc2c(C(F)F)ncnc21 [Compound 403, (1R,2S,3R,5R)-3-(4-(difluoromethyl)-7H-pyrrolo[2,3-d]pyrimidin-7-yl)-5-((R)-piperidin-3-yl) cyclopentane-1,2-diol]
–	–	> 10000 nM	–	–	Nc1ncnc2c1ncn2[C@@H]1O[C@H](C(=O)NCCCNCCc2ccc3ccccc3c2)[C@@H](O)[C@H]1O [688 (222), (2S,3S,4R,5R)-5-(6-amino-9H-purin-9-yl)-3,4-dihydroxy-N-(3-((2-(naphthalen-2-yl)ethyl)amino)propyl) tetrahydrofuran-2-carboxamide]
–	–	–	≤ 10 °C	–	O[C@@H]1[C@H](O)[C@@H]([C@@H]2CCCNC2)C[C@H]1n1cc(-c2nccs2)c2cncnc21 [Compound 401, (1S,2R,3R,5R)-3-((S)-piperidin-3-yl)-5-(5-(thiazol-2-yl)-7//pyrrolo[2,3-a]pyrimidin-7-yl) cyclopentane-1,2-diol]
–	–	–	> 20 °C	≤ 10 nM	Nc1nc(Cl)nc2c1c(-c1ccn(S(=O)(=O)c3ccccc3)n1)cn2[C@@H]1C[C@H](C2CCN(CC3CC3)CC2)[C@@H](O)[C@H]1O [Compound 520, (1R,2S,3R,5R)-3-{4-Amino-5-[1-(benzenesulfonyl)pyrazol-3-yl]-2-chloropyrrolo[2,3-d]pyrimidin-7-yl}-5-[1-(cyclopropylmethyl)piperidin-4-yl]cyclopentane-1,2-diol]
